Where two headings read alike, the source gives them in different places.
Experiments:
in vitro [1] = conditions: guinea pig, plasma
ReN VM cells [2] = conditions: human
[3] = in vivo, po; cited from earlier work
ReN VM cells [4] = conditions: cited from earlier work
in vitro [5] = conditions: Atp1a1^S/S (gene-edited), mouse, brain homogenate
human MDR1 [6] = molecular target: T1, human MDR1 (Homo sapiens, UniProt P08183); conditions: dog, MDCK-MDR1
[7] = molecular target: human MDR1 (P-glycoprotein, ABCB1) (Homo sapiens, UniProt P08183); test: in vitro; conditions: dog; for Papp A→B: MDCK-MDR1, Papp A–B; for Papp B→A: MDCK-MDR1, Papp B–A
Sequence of human MDR1 (P-glycoprotein, ABCB1) (P08183 whole entry): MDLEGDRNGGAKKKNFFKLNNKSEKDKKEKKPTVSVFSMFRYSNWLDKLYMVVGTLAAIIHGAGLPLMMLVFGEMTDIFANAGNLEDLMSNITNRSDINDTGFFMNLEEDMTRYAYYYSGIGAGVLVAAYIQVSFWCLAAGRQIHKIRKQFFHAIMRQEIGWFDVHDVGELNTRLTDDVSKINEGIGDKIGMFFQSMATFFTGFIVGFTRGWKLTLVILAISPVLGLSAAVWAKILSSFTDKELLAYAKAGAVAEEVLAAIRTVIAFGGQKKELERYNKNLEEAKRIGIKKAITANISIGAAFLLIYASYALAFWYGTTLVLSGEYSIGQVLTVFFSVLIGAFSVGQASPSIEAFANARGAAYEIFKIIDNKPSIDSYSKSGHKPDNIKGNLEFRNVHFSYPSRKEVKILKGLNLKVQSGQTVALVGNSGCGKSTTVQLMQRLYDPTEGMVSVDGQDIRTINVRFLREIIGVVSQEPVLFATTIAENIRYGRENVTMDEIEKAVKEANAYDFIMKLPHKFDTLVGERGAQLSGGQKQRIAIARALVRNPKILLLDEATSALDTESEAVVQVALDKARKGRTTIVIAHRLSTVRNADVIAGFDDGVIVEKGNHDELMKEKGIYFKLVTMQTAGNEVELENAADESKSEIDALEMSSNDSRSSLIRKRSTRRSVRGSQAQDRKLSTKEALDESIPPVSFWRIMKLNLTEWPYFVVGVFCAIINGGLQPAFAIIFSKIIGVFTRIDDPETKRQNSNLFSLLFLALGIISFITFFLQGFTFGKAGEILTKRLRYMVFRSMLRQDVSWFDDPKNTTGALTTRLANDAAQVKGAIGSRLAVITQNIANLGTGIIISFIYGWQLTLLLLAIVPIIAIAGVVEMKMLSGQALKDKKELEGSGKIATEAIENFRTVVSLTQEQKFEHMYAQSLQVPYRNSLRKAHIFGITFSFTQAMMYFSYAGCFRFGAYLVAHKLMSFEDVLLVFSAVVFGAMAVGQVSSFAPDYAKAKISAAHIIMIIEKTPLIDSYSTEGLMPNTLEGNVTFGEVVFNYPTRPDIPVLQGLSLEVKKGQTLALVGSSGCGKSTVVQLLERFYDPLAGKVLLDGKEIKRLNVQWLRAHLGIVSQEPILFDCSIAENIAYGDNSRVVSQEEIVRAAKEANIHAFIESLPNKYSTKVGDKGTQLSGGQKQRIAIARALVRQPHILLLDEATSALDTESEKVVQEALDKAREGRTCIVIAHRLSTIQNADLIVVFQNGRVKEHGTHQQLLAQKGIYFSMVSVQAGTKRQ

in vitro [8] = conditions: both, human, brain homogenate
in vivo = conditions: Atp1a1^S/S (gene-edited), mouse
[9] = in vivo, iv; cited from earlier work
in vitro [10] = conditions: guinea pig, brain homogenate
[11] = Atp1a1^S/S (gene-edited), mouse, in vivo; for Abrain / Cbrain (mean total brain concentration) / Cu,brain (unbound brain concentration): 0.6 mg/kg
PrP^C [12] = format: cell-based, human; conditions: ReN VM ATP1A1^r/r cells whose ATP1A1 does not bind CGs
[13] = cited from earlier work
PrP^C [14] = format: cell-based, human
PrP^C [15] = format: cell-based, human; conditions: differentiated T98G cells
HeLa cells = conditions: cited from earlier work
human MDR1 [16] = molecular target: T1, human MDR1; set-up: host or cells: MDCKII (canine kidney) cells, canine MDR1 deleted, human MDR1 gene inserted; method as in PMID 22906709, PMID 15620875; conditions: published values; cited from earlier work

T1 sequence (P08183 whole entry): as above

In the case of `CO[C@H]1C[C@H](O[C@H]2CC[C@@]3(C)[C@H](CC[C@@H]4[C@@H]3CC[C@]3(C)[C@@H](C5=CC(=O)OC5)[C@@H](OC(C)=O)C[C@]43O)C2)O[C@@H](C)[C@@H]1O` [oleandrin, reference compound], the fraction unbound (in vitro [1]) is given as 0.219, the “toxicity threshold (concentration at which all three cellular health indicators dropped to 75% of untreated)” value (ReN VM cells [2]) is given as 2.7 nM and the plasma levels [3] is given as 3 nM. The “concentrations at which toxic” value (ReN VM cells [4]) was “exceeding 4 nM”, the “estimated total brain concentration attainable in human brains” value was ≤ 18 nM and the fraction unbound (in vitro [5]) was 0.24. The “Papp B–A” value (human MDR1 [6]) was 145.79, the Papp A→B [7] was 7.06 ×10⁻⁶ cm/s and the Papp B→A [7] was 146 ×10⁻⁶ cm/s. For the same compound, the fraction unbound (in vitro [8]) was 0.316, the Kp uu (in vivo) was 0.27 and the “cerebrum levels relative to plasma levels” value [9] was 6 fold. For the same compound, the fraction unbound (in vitro [10]) was 0.219, the “Vu,brain” value [11] was 3.98 mL/g brain and the Abrain ([11]; sc) was 10.58 ng/g brain. For the same compound, the “Cbrain (mean total brain concentration)” value ([11]; sc) was 19.23 nM and the “Cu,brain (unbound brain concentration)” value ([11]; sc) was 4.61 nM.
In the case of `COC1CC(OC2CCC3(C)C(CCC4C3CCC3(C)C(C5=CC(=O)OC5)C(OC(C)=O)CC43O)C2)OC(C)C1=O` (centres unmarked) [KDC203, 4′-dehydro-oleandrin], the fraction unbound (in vitro [1]) is reported as 0.359, the “concentrations at which cytotoxicity observed” value (ReN VM cells [2]) is reported as > 40 nM and the “toxicity threshold (concentration at which all three cellular health indicators dropped to 75% of untreated)” value (ReN VM cells [2]) is reported as 46 nM. The “reduction in PrP^C levels” value (PrP^C [12]) was “no KDC203-mediated reduction in PrP^C levels was observed”, the “estimated total brain concentration attainable in human brains” value was 27 nM and the “estimated unbound concentration attainable in human brains” value was ~10 nM. For the same compound, the fraction unbound (in vitro [5]) was 0.33, the “oral effectiveness relative to oleandrin (lethal doses oral versus intravenous), higher by” value ([13]; cats) was “approximately 20%” and the “oral toxicity relative to oleandrin” value ([13]; in vivo, po) was “almost twofold lower”. The “Papp A–B” value (human MDR1 [6]) was 7.24, the “Papp B–A” value (human MDR1 [6]) was 70.60 and the “reduction of extrusion on addition of Zosuquidar” value (human MDR1 [6]) was “more than 50%”. The Papp A→B [7] was 11.6 ×10⁻⁶ cm/s, the Papp B→A [7] was 41.9 ×10⁻⁶ cm/s and the “maximum reduction in steady-state PrP^C levels (3F4-reactive signals)” value (PrP^C [14]) was 84%. The fraction unbound (in vitro [8]) was 0.395, the “reduction in PrP^C levels” value (PrP^C [15]) was “recapitulate the KDC203-dependent reduction in PrP^C levels” and the Kp uu (in vivo) was 0.44. For the same compound, the fraction unbound (in vitro [10]) was 0.294, the IC50 (HeLa cells) was 46 nM and the “Vu,brain” value [11] was 2.90 mL/g brain. For the same compound, the “brain levels relative to heart levels” value ([11]; sc) was 3.5 fold, the “total brain concentration of KDC203 relative to oleandrin” value ([11]; sc) was 1.5 fold and the Abrain ([11]; sc) was 16.75 ng/g brain. The “Cbrain (mean total brain concentration)” value ([11]; sc) was 30.46 nM and the “Cu,brain (unbound brain concentration)” value ([11]; sc) was 10.05 nM.
For `C[C@H]1O[C@@H](O[C@H]2[C@@H](O)C[C@H](O[C@H]3[C@@H](O)C[C@H](O[C@H]4CC[C@@]5(C)[C@H](CC[C@@H]6[C@@H]5C[C@@H](O)[C@]5(C)[C@@H](C7=CC(=O)OC7)CC[C@]65O)C4)O[C@@H]3C)O[C@@H]2C)C[C@H](O)[C@@H]1O` [digoxin], the “PappA-B, published value” (human MDR1 [16]) is listed as 0.5 ×10⁻⁶ cm/s.

From publication PMC9736291 (International Journal of Molecular Sciences, 2022)
